From patent publication US8853258B2, “C-linked hydroxamic acid derivatives useful as antibacterial agents” (Pfizer Inc., priority 2009, dated 2014)
pIC50: −log10 of the molar value.

Columns and labels:
[1] = system: Pseudomonas aeruginosa UI-18: Wild-type (PA-7); experiment: MIC determination (CLSI), PA-7; format: cell-based; conditions: Pseudomonas aeruginosa UI-18 wild-type PA-7
How it was run: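 MIC by dilution method per CLSI M7-A7 and M100-S18 guidelines. Strain: wild-type Pseudomonas aeruginosa UI-18.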

[2] = system: Klebsiella pneumoniae: Ciprofloxacin-resistant isolate, ESBL, clinical isolate (KP-3700); experiment: MIC determination (CLSI), KP-3700; format: cell-based
How it was run: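 MIC measured by broth dilution according to CLSI M7-A7 and M100-S18 standards. Test organism was a ciprofloxacin-resistant, ESBL-expressing clinical isolate.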

[3] = target: Pseudomonas aeruginosa LpxC enzyme (Pseudomonas aeruginosa (strain ATCC 15692 / DSM 22644 / CIP 104116 / JCM 14847 / LMG 12228 / 1C / PRS 101 / PAO1), UniProt P47205); experiment: IC50 Assay, LpxC Enzyme from P. aeruginosa (PA LpxC Enzyme IC50); format: biochemical; conditions: P. aeruginosa LpxC enzyme; read-out: PA LpxC enzyeme IC50
Protocol: In order to assess the compounds biological activity, selected in-vitro assays were conducted on selected compounds. One of the assays measured the compounds ability to disrupt the synthesis of lipopolysaccharide, LPS, which is a component of the outer membrane of Gram-negative bacteria. Disruption of this synthesis is lethal to the bacteria. The assay determined the compound's ability to inhibit LpxC, which is the first enzyme in the biosynthetic pathway for LPS (measured as IC50). Additionally, MICs (minimal inhibitory concentrations) were determined for several bacteria. The specific protocols are described below:
A) IC50 Assay, LpxC Enzyme from P. aeruginosa (Labled as PA LpxC Enzyme IC50
At the end of 1 hour, 5 ul of 1N HCl was added to stop the enzyme reaction; the plates were centrifuged, and then processed with the BioTrove Rapidfire HTMS Mass Spectrometry System. A no-enzyme control was used in calculating the IC50 values from the percent conversion values.

[4] = system: Acinetobacter baumanii/haemolyticus: Multidrug-resistant clinical isolate (AB-3167); experiment: MIC determination (CLSI), AB-3167; format: cell-based; conditions: Acinetobacter baumanii/haemolyticus multidrug-resistant clinical isolate AB-3167
How it was run: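 Multidrug-resistant clinical isolate AB-3167 (A. baumannii/haemolyticus) tested for minimum inhibitory concentration following CLSI dilution susceptibility standards M7-A7 and M100-S18.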

[5] = system: Escherichia coli EC-1: VOGEL, mouse virulent; experiment: MIC determination (CLSI), EC-1; format: cell-based; conditions: Escherichia coli EC-1 VOGEL, mouse virulent
How it was run: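 E. coli Vogel, a mouse-virulent strain (EC-1), was tested. MICs were set by dilution susceptibility testing per CLSI standards M7-A7/M100-S18.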

Row | SMILES | PA-7 MIC [1] [µg/mL] | KP-3700 MIC [2] | pIC50 [3] | AB-3167 MIC [4] | EC-1 MIC [5] [µg/mL]
1 | Cc1cccc(-c2ccc(CCC(C)(C(=O)NO)S(C)(=O)=O)cc2)c1C (stereo not shown) [Example 78] | 2 | 16 µg/mL | 9.35 | ≧64 mg/L | 2
2 | CC(CCc1ccc(-c2ccccc2Cl)cc1)(C(=O)NO)S(C)(=O)=O (stereo not shown) [Example 81] | 1 | 8 µg/mL | 9.35 | 32 µg/mL | 2
3 | Cc1ccc(-c2ccc(CCC(C)(C(=O)NO)S(C)(=O)=O)cc2)cc1C (stereo not shown) [Example 83] | 2 | 4 µg/mL | 9.62 | 8 µg/mL | 1
4 | CC(CCc1ccc(-c2cccc(Cl)c2)cc1)(C(=O)NO)S(C)(=O)=O (stereo not shown) [Example 88] | 1 | 4 µg/mL | 9.44 | 4 µg/mL | 1
5 | Cc1cc(C#N)ccc1-c1ccc(CCC(C)(C(=O)NO)S(C)(=O)=O)cc1 (stereo not shown) [Example 91] | 2 | 8 µg/mL | 9.58 | 16 µg/mL | 2
6 | Cc1cc(F)ccc1-c1ccc(CCC(C)(C(=O)NO)S(C)(=O)=O)cc1 (stereo not shown) [Example 98] | 2 | 16 µg/mL | 8.91 | 32 µg/mL | 4
7 | CC(CCc1ccc(-c2ccc(F)c(Cl)c2)cc1)(C(=O)NO)S(C)(=O)=O (stereo not shown) [Example 104] | 1 | 2 µg/mL | 9.90 | 2 µg/mL | 0.5
8 | C[C@@](CCc1ccc(-c2ccc(C#N)cc2)cc1)(C(=O)NO)S(C)(=O)=O [Example 107] | 0.25 | 1 µg/mL | 9.87 | 16 µg/mL | 0.25
9 | CC(=O)c1ccc(-c2ccc(CCC(C)(C(=O)NO)S(C)(=O)=O)cc2)cc1 (stereo not shown) [Example 108] | 0.5 | 2 µg/mL | 9.75 | 32 µg/mL | 0.5
10 | Cc1cc(-c2ccc(CCC(C)(C(=O)NO)S(C)(=O)=O)cc2)ccc1C#N (stereo not shown) [Example 109] | 2 | 2 µg/mL | 9.84 | 32 µg/mL | 0.5
11 | CC(CCc1ccc(-c2ccc(OCCO)cc2)cc1)(C(=O)NO)S(C)(=O)=O (stereo not shown) [Example 113] | 1 | 8 µg/mL | 9.83 | ≧64 mg/L | 2
12 | CC(CCc1ccc(-c2ccc(OCCCO)cc2)cc1)(C(=O)NO)S(C)(=O)=O (stereo not shown) [Example 115] | 2 | 2 µg/mL | 9.41 | ≧64 mg/L | 0.5
13 | CC(CCc1ccc(-c2ccc(CO)c(F)c2)cc1)(C(=O)NO)S(C)(=O)=O (stereo not shown) [Example 123] | 1 | 16 µg/mL | 9.31 | ≧64 mg/L | 16
14 | CC(CCc1ccc(-c2ccc(C#N)c(Cl)c2)cc1)(C(=O)NO)S(C)(=O)=O (stereo not shown) [Example 126] | 0.5 | 2 µg/mL | 9.48 | 8 µg/mL | 0.5
15 | CC(CCc1ccc(-c2cc(F)c(C#N)c(F)c2)cc1)(C(=O)NO)S(C)(=O)=O (stereo not shown) [Example 127] | 2 | 8 µg/mL | 9.82 | 32 µg/mL | 1
16 | CC(CCc1ccc(-c2ccc(C#N)cc2F)cc1)(C(=O)NO)S(C)(=O)=O (stereo not shown) [Example 128] | 0.5 | 8 µg/mL | 9.63 | ≧64 mg/L | 0.5
17 | CC(CCc1ccc(OCc2ccccc2)cc1)(C(=O)NO)S(C)(=O)=O (stereo not shown) [Example 132] | 2 | 16 µg/mL | 9.41 | 16 µg/mL | 2
18 | CC(=O)c1ccc(-c2ccc(CCC(C)(C(=O)NO)S(C)(=O)=O)cn2)cc1 (stereo not shown) [Example 133] | 16 | ≧64 mg/L | 9.01 | ≧64 mg/L | 16
19 | CC(CCc1ccc(-c2ccc(OCCCCO)cc2)cc1)(C(=O)NO)S(C)(=O)=O (stereo not shown) [Example 136] | 1 | 1 µg/mL | 9.69 | ≧64 mg/L | 0.125
20 | CC(CCc1ccc(-c2ccc(O)c(F)c2)cc1)(C(=O)NO)S(C)(=O)=O (stereo not shown) [Example 138] | 1 | 8 µg/mL | 9.47 | 32 µg/mL | 2
21 | Cc1cc(-c2ccc(F)cc2)ccc1CCC(C)(C(=O)NO)S(C)(=O)=O (stereo not shown) [Example 157] | 4 | 4 µg/mL | 9.47 | 8 µg/mL | 1
22 | CC(C)(O)CCc1ccc(-c2ccc(CCC(C)(C(=O)NO)S(C)(=O)=O)cc2)cc1 (stereo not shown) [Example 158] | 4 | 8 µg/mL | 9.19 | 32 µg/mL | 0.5
23 | Cc1cc(CCC(C)(C(=O)NO)S(C)(=O)=O)ccc1-c1ccccc1 (stereo not shown) [Example 159] | 8 | 16 µg/mL | 8.25 | 32 µg/mL | 4
